Data: patent publication US10538554B2, “Peptides and uses therefor as antiviral agents” (priority 2015, dated 2020)
Bridge positions count the residues as written; N and C are the ends. Square brackets hold non-standard residues; d marks the D form. Peptide text beside a SMILES is read from it.

What follows are compounds tested on H1N1 A/PR/8/1934. Conditions: A/PR/8/1934, 48 h, 1 μM.
CC[C@@H](C)[C@H]1NC(=O)[C@@H](Cc2ccccc2)NC(=O)[C@@H]([C@H](C)O)NC(=O)[C@@H](Cc2ccccc2)NC(=O)[C@@H](Cc2c[nH]c3ccccc23)NC(=O)[C@@H](Cc2c[nH]c3ccccc23)NC(=O)[C@H](NC(=O)[C@H](CCCCN)NC(=O)[C@H](CCCCN)NC(=O)[C@H](CCCNC(=N)N)NC(=O)[C@@H](N)CCCNC(=N)N)CSSC[C@H](C(=O)O)NC(=O)[C@@H](CCC(N)=O)NC1=O [PSP VI A14, H-RRKKcwwftfiqc-OH] (H-RRKK[dC][dW][dW][dF][dT][dF][dI][dQ][dC]-OH; disulfide 5-13) was tested, and the “% Inhibition” value was 85%. CC[C@@H](C)[C@H]1NC(=O)[C@@H](Cc2ccccc2)NC(=O)[C@@H]([C@H](C)O)NC(=O)[C@@H](Cc2ccccc2)NC(=O)[C@@H](Cc2c[nH]c3ccccc23)NC(=O)[C@@H](CO)NC(=O)[C@H](NC(=O)[C@H](CCCCN)NC(=O)[C@H](CCCCN)NC(=O)[C@H](CCCNC(=N)N)NC(=O)[C@@H](N)CCCNC(=N)N)CSSC[C@H](C(=O)O)NC(=O)[C@@H](CC(N)=O)NC1=O [PSP V A16, H-RRKKcswftfinc-OH] (H-RRKK[dC][dS][dW][dF][dT][dF][dI][dN][dC]-OH; disulfide 5-13) was tested, and the “% Inhibition” value was 54%. In the case of CC[C@@H](C)[C@H]1NC(=O)[C@@H](Cc2ccccc2)NC(=O)[C@@H]([C@H](C)O)NC(=O)[C@@H](Cc2ccccc2)NC(=O)[C@@H](Cc2c[nH]c3ccccc23)NC(=O)[C@H]2CCCN2C(=O)[C@H](NC(=O)[C@H](CCCCN)NC(=O)[C@H](CCCCN)NC(=O)[C@H](CCCNC(=N)N)NC(=O)[C@@H](N)CCCNC(=N)N)CSSC[C@H](C(=O)O)NC(=O)[C@@H](CC(N)=O)NC1=O [PSP V A13, H-RRKKcpwftfinc-OH] (H-RRKK[dC][dP][dW][dF][dT][dF][dI][dN][dC]-OH; disulfide 5-13), the “% Inhibition” value is reported as under 20%. For CC[C@@H](C)[C@H]1NC(=O)[C@@H](Cc2ccccc2)NC(=O)[C@@H]([C@H](C)O)NC(=O)[C@@H](Cc2ccccc2)NC(=O)[C@@H](Cc2c[nH]c3ccccc23)NC(=O)[C@@H](Cc2c[nH]c3ccccc23)NC(=O)[C@H](NC(=O)[C@H](CCCCN)NC(=O)[C@H](CCCCN)NC(=O)[C@H](CCCNC(=N)N)NC(=O)[C@@H](N)CCCNC(=N)N)CSSC[C@H](C(=O)O)NC(=O)[C@@H](Cc2ccc(O)cc2)NC1=O [PSP VI A20, H-RRKKcwwftfiyc-OH] (H-RRKK[dC][dW][dW][dF][dT][dF][dI][dY][dC]-OH; disulfide 5-13), the “% Inhibition” value was 53%. CC[C@@H](C)[C@H]1NC(=O)[C@@H](Cc2ccccc2)NC(=O)[C@@H]([C@H](C)O)NC(=O)[C@@H](Cc2ccccc2)NC(=O)[C@@H](Cc2c[nH]c3ccccc23)NC(=O)[C@@H](Cc2c[nH]c3ccccc23)NC(=O)[C@H](NC(=O)[C@H](CCCCN)NC(=O)[C@H](CCCCN)NC(=O)[C@H](CCCNC(=N)N)NC(=O)[C@@H](N)CCCNC(=N)N)CSSC[C@H](C(=O)O)NC(=O)[C@@H](CCSC)NC1=O [PSP VI A11, H-RRKKcwwftfimc-OH] (H-RRKK[dC][dW][dW][dF][dT][dF][dI][dM][dC]-OH; disulfide 5-13) was tested, and the “% Inhibition” value was 79%. For CC[C@@H](C)[C@H]1NC(=O)[C@@H](Cc2ccccc2)NC(=O)[C@@H]([C@H](C)O)NC(=O)[C@@H](Cc2ccccc2)NC(=O)[C@@H](Cc2c[nH]c3ccccc23)NC(=O)[C@@H](Cc2c[nH]c3ccccc23)NC(=O)[C@H](NC(=O)[C@H](CCCCN)NC(=O)[C@H](CCCCN)NC(=O)[C@H](CCCNC(=N)N)NC(=O)[C@@H](N)CCCNC(=N)N)CSSC[C@H](C(=O)O)NC(=O)[C@@H](Cc2c[nH]c3ccccc23)NC1=O [PSP VI A19, H-RRKKcwwftfiwc-OH] (H-RRKK[dC][dW][dW][dF][dT][dF][dI][dW][dC]-OH; disulfide 5-13), the “% Inhibition” value was 78%.
